Literature values, collected in US9889198B2 (KemPharm, Inc., priority 2010, dated 2018).
Blank lines part the entries; values can stand above or below the compound they belong to.

Columns and labels:
[1] = molecular target: T1, 5-HT1A receptor (Homo sapiens, UniProt P08908); settings: relative to quetiapine
T1 sequence (P08908 1-422): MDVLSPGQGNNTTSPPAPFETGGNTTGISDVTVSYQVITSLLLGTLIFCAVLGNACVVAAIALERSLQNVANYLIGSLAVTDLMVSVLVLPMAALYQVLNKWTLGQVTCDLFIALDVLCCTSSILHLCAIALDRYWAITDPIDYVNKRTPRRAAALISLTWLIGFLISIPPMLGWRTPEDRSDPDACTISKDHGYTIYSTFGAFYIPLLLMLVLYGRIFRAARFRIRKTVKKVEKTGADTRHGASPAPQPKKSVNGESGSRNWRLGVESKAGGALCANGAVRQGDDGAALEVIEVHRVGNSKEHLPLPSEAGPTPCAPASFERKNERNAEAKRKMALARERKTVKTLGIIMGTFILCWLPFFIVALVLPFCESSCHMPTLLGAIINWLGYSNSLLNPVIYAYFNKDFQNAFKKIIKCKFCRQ

[2] = molecular target: human NET (Homo sapiens, UniProt P23975); settings: relative to quetiapine
Sequence of human NET (P23975 whole entry): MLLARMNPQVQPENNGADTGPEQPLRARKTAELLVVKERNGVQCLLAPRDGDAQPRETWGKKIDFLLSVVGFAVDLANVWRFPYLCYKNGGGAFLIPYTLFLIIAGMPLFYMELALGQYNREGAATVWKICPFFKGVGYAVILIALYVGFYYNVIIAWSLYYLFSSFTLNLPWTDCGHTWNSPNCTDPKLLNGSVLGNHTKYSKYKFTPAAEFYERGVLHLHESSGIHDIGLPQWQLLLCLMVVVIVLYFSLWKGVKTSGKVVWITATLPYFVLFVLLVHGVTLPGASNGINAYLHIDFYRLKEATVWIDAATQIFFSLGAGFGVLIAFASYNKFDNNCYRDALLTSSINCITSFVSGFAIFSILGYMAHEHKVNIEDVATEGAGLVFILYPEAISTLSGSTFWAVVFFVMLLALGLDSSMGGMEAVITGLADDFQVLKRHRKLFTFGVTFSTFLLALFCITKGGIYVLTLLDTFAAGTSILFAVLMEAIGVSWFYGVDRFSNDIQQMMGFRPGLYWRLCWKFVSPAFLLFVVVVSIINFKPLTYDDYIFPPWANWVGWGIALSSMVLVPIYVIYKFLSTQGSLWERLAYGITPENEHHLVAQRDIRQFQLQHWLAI

[3] = test system: leptin release; settings: chronic oral administration, 6 weeks

SMILES: c1ccc2c(c1)N=C(N1CCNCC1)c1ccccc1S2 [N-desalkyl-quetiapine]
more potent than quetiapine at the 5-HT1A receptor [1]: 10 fold
higher avidity for inhibiting human NET than quetiapine [2]: about 100 fold

SMILES: CCCC(CCC)C(=O)O [Valproic acid, 2-propylpentanoic acid]
response rate in acute mania (acute mania patients): around 50%
response rate in bipolar depression (bipolar depression): ~30%

increase in leptin release [3]: about 37%
SMILES: OCCOCCN1CCN(C2=Nc3ccccc3Sc3ccccc32)CC1 [quetiapine, 2-(2-(4-(dibenzo[b,f][1,4]thiazepin-11-yl)piperazin-1-yl)ethoxy)ethanol]
